Measured values published in patent publication US20100216732A1, “Azithromycin for the treatment of nodular acne” (priority 2006, published 2010).
Several values for one entry are separate records, joined by “and”; a condition that tells them apart may be missing. Equal values may be shown once.

Experiments:
[1] = system: moderate to severe inflammatory acne; conditions: 500 mg for three consecutive days in a 10 day cycle, with topical erythromycin; cited from earlier work
[2] = system: lesions of inflammatory acne; conditions: pulse-dose regimen, three-times-weekly, versus daily doxycycline, erythromycin, minocycline, tetracycline; cited from earlier work
[3] = system: severe acne vulgaris with multiple nodules; assay: Open label clinical study of daily or pulsed oral azithromycin, nodule counts over 3 months; assay type: in vivo, human; conditions: for Nodules in the 2 non-responding patients two months after initiation of therapy: single patients
Source text: The invention is further illustrated by the following non-limiting examples. In the examples, patients included in the study were male or female subjects of any race, 16 years of age or older. presenting with 20-60 inflammatory lesions (papules or pustules), 20 to 150 non-inflammatory lesions (comedones or whiteheads), and 3 to 10 nodules. Patients having severe acne vulgaris with multiple nodules were enrolled in an open label clinical study in which each patient received a daily oral dose of 250 mg of azithromycin for the 3-month duration of the study. Lesion counts were recorded at baseline before the initiation of treatment and at 1, 2, and 3 months following initiation of treatment. […] These 2 patients had 9 and 8 nodules, respectively, at baseline and 8 and 13 nodules, respectively two months after initiation of therapy. Of the favorable responders, two patients who began the study with 3 nodules had 2 nodules at the end of the three month study. The remaining 14 patients who responded favorably to treatment had on average 6.7 nodules at baseline (range 4 to 10 nodules) and improved to having no nodules (10 patients) or at most 1 nodule (4 patients) by the end of the three month course of treatment. Another set of patients with severe acne vulgaris was enrolled in an open label clinical study as in Example 1, except that each patient received a daily oral dose of 250 mg of azithromycin for one week followed by one week of no azithromycin, which cycle was repeated for the 3-month duration of the study. […] These 2 patients had 6 and 10 nodules, respectively, at baseline and 5 and 8 nodules, respectively, two months after initiation of therapy. Three patients had partial clearing of nodules during the study. These patients had 9, 10, and 6 nodules, respectively, at baseline and 3, 4, and 2 nodules, respectively, at the end of the study. Another set of patients with severe acne vulgaris was enrolled in an open label clinical study as in Example 1, except that each patient received a daily oral dose of 125 mg of azithromycin for the 3-month duration of the study. […] These 2 patients had 8 and 3 nodules, respectively, at baseline and 10 and 4 nodules, respectively two months after initiation of therapy. The 18 patients who responded favorably to treatment had on average 5.1 nodules at baseline (range 3 to 8 nodules) and improved to having no nodules (13 patients) or at most 1 nodule (5 patients) at the end of the three month course of treatment.

nodular cystic acne = conditions: Pigatto study, in words; cited from earlier work
[4] = Example 1, 250 mg/day oral, 3 months, 18 patients
[5] = Example 2, 250 mg/day every other week, 3 months, 18 patients
[6] = Example 3, 125 mg/day oral, 3 months, 20 patients
[7] = Total Examples 1 to 3, 56 patients

CC[C@H]1OC(=O)[C@H](C)[C@@H](O[C@H]2C[C@@](C)(OC)[C@@H](O)[C@H](C)O2)[C@H](C)[C@@H](O[C@@H]2O[C@H](C)C[C@H](N(C)C)[C@H]2O)[C@](C)(O)C[C@@H](C)CN(C)[C@H](C)[C@@H](O)[C@]1(C)O [azithromycin, 9-deoxo-9a-aza-9a-methyl-9a-homoerythromycin A]
Efficacy in treating moderate to severe acne vulgaris [1]: effective
Efficacy in treating lesions of inflammatory acne [2]: as effective as other antibiotics tested
Number of patients that did not respond favorably to treatment ([3]; Example 1, 250 mg daily oral, of 18 patients in study longer than one month): 2
Number of patients improved to at most 1 nodule by end of three month treatment ([3]; Example 1, 250 mg daily, of remaining 14 favorable responders, average 6.7 nodules at baseline): 4 patients
Number of patients improved to having no nodules by end of three month treatment ([3]; Example 1, 250 mg daily, of remaining 14 favorable responders, average 6.7 nodules at baseline (range 4 to 10)): 10 patients
Nodules in the 2 non-responding patients two months after initiation of therapy ([3]; Example 1, 250 mg daily, 9 and 8 nodules at baseline, respectively): 8 nodules and 13 nodules
Nodules at the end of the three month study in two favorable responders ([3]; Example 1, 250 mg daily, two patients who began with 3 nodules): 2 nodules
Number of good responders [3, 4]: 16
Percentage of good responders [3, 4]: 88.9%
Percentage of nodules cleared in good responders ([3]; Example 1, 250 mg/day, 16 good responders): 92.0%
Nodules in good responders after treatment ([3]; Example 1, 250 mg/day, 16 good responders, nodules before 100): 8
Percentage of nodules cleared ([3]; Example 1, 250 mg/day, all 18 patients): 75.2%
Nodules remaining after treatment ([3]; Example 1, 250 mg/day, all 18 patients, number of nodules before 117): 29
Number of patients improved to at most 1 nodule at end of three month treatment ([3]; Example 2, 250 mg daily every other week, of remaining 13 favorable responders, average 6.2 nodules at baseline): 3 patients
Number of patients improved to having no nodules at end of three month treatment ([3]; Example 2, 250 mg daily every other week, of remaining 13 favorable responders, average 6.2 nodules at baseline (range 3 to 10)): 10 patients
Nodules in the 2 non-responding patients two months after initiation of therapy ([3]; Example 2, 250 mg daily every other week, 6 and 10 nodules at baseline, respectively): 5 nodules and 8 nodules
Nodules at the end of the study in three patients with partial clearing ([3]; Example 2, 250 mg daily every other week, single patients, 9, 10 and 6 nodules at baseline, respectively): 3 nodules and 4 nodules and 2 nodules
Number of patients that did not respond favorably to treatment ([3]; Example 2, 250 mg daily one week on, one week off, of 18 patients): 2
Number of good responders [3, 5]: 16
Percentage of good responders [3, 5]: 88.9%
Percentage of nodules cleared in good responders ([3]; Example 2, 250 mg/day every other week, 16 good responders): 87.9%
Nodules in good responders after treatment ([3]; Example 2, 250 mg/day every other week, 16 good responders, nodules before 99): 12
Percentage of nodules cleared ([3]; Example 2, 250 mg/day every other week, all 18 patients): 78.3%
Nodules remaining after treatment ([3]; Example 2, 250 mg/day every other week, all 18 patients, number of nodules before 115): 25
Number of patients that did not respond favorably to treatment ([3]; Example 3, 125 mg daily oral, of 20 patients): 2
Number of patients improved to at most 1 nodule at end of three month treatment ([3]; Example 3, 125 mg daily, of 18 favorable responders, average 5.1 nodules at baseline): 5 patients
Number of patients improved to having no nodules at end of three month treatment ([3]; Example 3, 125 mg daily, of 18 favorable responders, average 5.1 nodules at baseline (range 3 to 8)): 13 patients
Nodules in the 2 non-responding patients two months after initiation of therapy ([3]; Example 3, 125 mg daily, 8 and 3 nodules at baseline, respectively): 10 nodules and 4 nodules
Number of good responders [3, 6]: 18
Percentage of good responders [3, 6]: 90.0%
Percentage of nodules cleared in good responders ([3]; Example 3, 125 mg/day, 18 good responders): 94.6%
Nodules in good responders after treatment ([3]; Example 3, 125 mg/day, 18 good responders, nodules before 92): 5
Percentage of nodules cleared ([3]; Example 3, 125 mg/day, all 20 patients): 81.6%
Nodules remaining after treatment ([3]; Example 3, 125 mg/day, all 20 patients, number of nodules before 103): 19
Nodules in good responders after treatment ([3]; Total Examples 1 to 3, 50 good responders, nodules before 291): 25
Number of good responders [3, 7]: 50
Percentage of nodules cleared [3, 7]: 78.2%
Nodules remaining after treatment ([3]; Total Examples 1 to 3, 56 patients, number of nodules before 335): 73
Efficacy in treating nodular acne vulgaris, including severe nodular acne vulgaris ([3]; systemic administration, Examples 1 to 3): highly efficacious

CC1=C(/C=C/C(C)=C/C=C/C(C)=C\C(=O)O)C(C)(C)CCC1 [isotretinoin]
Efficacy in treating nodular cystic acne (nodular cystic acne): highly efficacious
